Experimental data published in ChEMBL document CHEMBL5029163, “Enhancing the Pharmacokinetic Profile of Interleukin 2 through Site-Specific Conjugation to a Selective Small-Molecule Transthyretin Ligand” (J Med Chem, 2021).
pKd: −log10 of the molar value. Activity calls are given as the source filed them. The calls are words filed in the database; no cut-off is given here.

Legend:
Transthyretin [1] = molecular target: T1, Transthyretin (Homo sapiens, UniProt P02766); test: Binding affinity to human TTR in human serum assessed as target occupancy at 10 uM measured every 15 mins for 6 hrs by fluorescent probe exclusion selectivity assay; assay type: cell-free
[2] = molecular target: Interleukin-2 (Homo sapiens) (UniProt P60568); test: Induction of stability of human recombinant interleukin 2 assessed as mean residence time in Sprague-Dawley rat at 0.8 mg/kg, iv measured up to 24 hrs by ELISA (Rvb= 1.04+/-0.07 hrs); assay type: organism-based; settings: time hrs <=24
Interleukin-2 (Homo sapiens), sequence (P60568 whole entry): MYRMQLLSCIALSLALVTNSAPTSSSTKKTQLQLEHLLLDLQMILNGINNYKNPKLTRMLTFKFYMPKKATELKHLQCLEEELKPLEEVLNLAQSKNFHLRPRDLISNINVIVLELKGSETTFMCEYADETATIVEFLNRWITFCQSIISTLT

Transthyretin [3] = molecular target: T1, Transthyretin; test: Binding affinity to human TTR assessed as binding constant in PBS buffer at pH 7.4 measured after 20 mins fluorescence polarization assay
[4] = molecular target: Interleukin-2 (Homo sapiens) (UniProt P60568); test: Induction of stability of human recombinant interleukin 2 assessed as effect on mouse CTLL-2 cell proliferation in presence of TTR measured after 48 hrs by WST-1 assay
[5] = molecular target: Interleukin-2 (Homo sapiens) (UniProt P60568); test: Induction of stability of human recombinant interleukin 2 assessed as half life in Sprague-Dawley rat plasma at 0.8 mg/kg, iv measured up to 24 hrs by ELISA (Rvb= 1.26+/-0.18 hrs); assay type: organism-based; settings: time hrs <=24
[6] = molecular target: Interleukin-2 (Homo sapiens) (UniProt P60568); test: Induction of stability of human recombinant interleukin 2 assessed as binding affinity to human TTR in human serum by measuring target occupancy at 10 uM measured every 15 mins for 6 hrs by fluorescent probe exclusion selectivity assay; assay type: cell-free

Structure (SMILES): Cc1n[nH]c(C)c1CCCOc1cc(OCCCc2cn(CCOCCOCCOCCOCCNC(=O)C3CCC(CN4C(=O)C=CC4=O)CC3)nn2)cc(C(=O)O)c1 (stereo unspecified)
- Occ (Transthyretin [1]): 51.8%
- MRT [2]: 8.76 h
- pKd (Transthyretin [3]): 6.29
- Activity [4]: inactive
- T1/2 [5]: 5.22 h
- Occ [6]: 52.6%
